Measurements from patent publication US11560366B2, “Bicyclo[1.1.1]pentane inhibitors of dual leucine zipper (DLK) kinase for the treatment of disease” (Board of Regents, The University of Texas System, priority 2019, dated 2023).
Read-outs that look alike come from different tables or passages of the source.

Assays:
human DLK = human DLK (Homo sapiens (Human), UniProt Q12852); assay: DLK Kd determination (KINOMEscan KdELECT, DiscoveRx); format: binding
Description: The DLK dissociation constants (Kd) have been determined in the KINOMEscan KdELECT Service at DiscoveRx.
A fusion protein of full length of human DLK (amino acids 1-859) and the DNA binding domain of NFkB was expressed in transiently transfected HEK293 cells. From these HEK 293 cells, extracts were prepared in M-PER extraction buffer (Pierce) in the presence of Protease Inhibitor Cocktail Complete (Roche) and Phosphatase Inhibitor Cocktail Set II (Merck) per manufacturers' instructions. The DLK fusion protein was labeled with a chimeric double-stranded DNA tag containing the NFkB binding site (5′-[sequence]-3′, SEQ ID NO:1) fused to an amplicon for qPCR readout, which was added directly to the expression extract (the final concentration of DNA-tag in the binding reaction is 0.1 nM).
The liganded beads were blocked with excess biotin and washed with blocking buffer (SeaBlock (Pierce), 1% BSA, 0.05% Tween 20, 1 mM DTT) to remove unbound ligand and to reduce nonspecific binding.
Extracts were used directly in binding assays without any enzyme purification steps at a >10,000-fold overall stock dilution (final DNA-tagged enzyme concentration <0.1 nM). Extracts were loaded with DNA-tag and diluted into the binding reaction in a two step process. First extracts were diluted 1:100 in 1× binding buffer (PBS/0.05% Tween 20/10 mM DTT/0.1% BSA/2 μg/ml sonicated salmon sperm DNA) containing 10 nM DNA-tag. This dilution was allowed to equilibrate at room temperature for 15 minutes and then subsequently diluted 1:100 in 1× binding buffer. Test compounds were prepared as 111× stocks in 100% DMSO. Kds were determined using an 11-point 3-fold compound dilution series with three DMSO control points. […] The compounds were then diluted directly into the assays such that the final concentration of DMSO was 0.9%. All reactions performed in polypropylene 384-well plates. Each was a final volume of 0.02 mL. Assays were incubated with shaking for 1 hour at room temperature. Then the beads were pelleted and washed with wash buffer (1×PBS, 0.05% Tween 20) to remove displaced kinase and test compound. […] The kinase concentration in the eluates was measured by qPCR. qPCR reactions were assembled by adding 2.5 μL of kinase eluate to 7.5 μL of qPCR master mix containing 0.15 μM amplicon primers and 0.15 μM amplicon probe.
Test compounds were prepared as 111× stocks in 100% DMSO. Kds were determined using an 11-point 3-fold compound dilution series with three DMSO control points. […] The compounds were then diluted directly into the assays such that the final concentration of DMSO was 0.9%. The Kds were determined using a compound top concentration of 30,000 nM. Kd measurements were performed in duplicate.
Binding constants (Kds) were calculated with a standard dose-response curve using the Hill equation:
The Hill Slope was set to −1.

[1] = Metabolic stability in liver microsomes, rat; format: in vitro ADME; conditions: Sprague Dawley, 0.5 mg/mL microsomes, NADPH, 45 minutes, 37° C., read-out: Half-life in liver microsomes (t1/2, minutes)
Description: (§1) The test compound was incubated with liver microsomes (0.5 mg/mL) from CD-1 mouse, Sprague Dawley rat, Beagle dog, Cynomolgus monkey, and human in the presence of NADPH for 45 minutes at 37° C. The % parent remaining over time was determined by LC-MS/MS, using peak area ratios. Half-life (t1/2) was calculated using the following equation: t1/2=ln2/k, where k is the rate constant of parent decay over time (slope of the plot of log[% parent remaining] versus time).

[2] = Mouse pharmacokinetics, single dose; format: in vivo, male C57BL/6 mice; conditions: for Kp / unbound brain-to-plasma ratio (Kp,uu): brain and plasma, po, 10 mg/kg, based on AUC; for Kp / unbound brain-to-plasma ratio (Kp,uu) / AUC(0-t) / Cmax / bioavailability: oral dose 10 mg/kg; for Kp: read-out: Brain/Plasma Ratio; for unbound brain-to-plasma ratio (Kp,uu): read-out: Free Brain/Plasma Ratio; for clearance / half-life / Vd: in vivo; for Vd: read-out: Vss; for AUC(0-t) / Cmax / bioavailability: plasma; for clearance in mice, comparison in words / half-life in mice, comparison in words: relative to comparator compounds 13 or 14b; for brain penetration, in words: relative to 13 and 14b and to 1a, 4b, 8a and 9b
[3] = Metabolic stability in liver microsomes, mouse; format: in vitro ADME, CD-1 mouse; conditions: CD-1, liver microsomes, 0.5 mg/mL microsomes, NADPH, 45 minutes, 37° C., read-out: Half-life in liver microsomes (t1/2, minutes)
Description: as §1

[4] = Metabolic stability in liver microsome preparations, overall comparison; format: in vitro ADME; conditions: relative to comparator compounds 13 or 14/14b (WO2018207072)
Description: as §1

[5] = Metabolic stability in liver microsomes, monkey; format: in vitro ADME, Cynomolgus monkey; conditions: 0.5 mg/mL microsomes, NADPH, 45 minutes, 37° C., read-out: Half-life in liver microsomes (t1/2, minutes)
Description: as §1

[6] = Metabolic stability in liver microsomes, dog; format: in vitro ADME; conditions: Beagle, 0.5 mg/mL microsomes, NADPH, 45 minutes, 37° C., read-out: Half-life in liver microsomes (t1/2, minutes)
Description: as §1

[7] = Metabolic stability in liver microsomes, human; format: in vitro ADME; conditions: 0.5 mg/mL microsomes, NADPH, 45 minutes, 37° C., read-out: Half-life in liver microsomes (t1/2, minutes)
Description: as §1

[8] = Rat pharmacokinetics, single dose; format: in vivo, Wistar Han rats; conditions: rat, in vivo, Wistar Han rats
Description: Pharmacokinetics for compounds 13, 1a, and 9b were determined using single dosage of Wistar Han rats using techniques that are well known in the art.

[9] = male, C57BL/6, mouse, male C57BL/6 mice
[10] = mouse, male C57BL/6 mice, IV dose 0.3 mg/kg (1a, 4b, 13, 14b, 16; IV dose of 8a, 9b not stated)
[11] = full length human DLK fusion protein, qPCR readout, duplicate, read-out: Kd
[12] = male, C57BL/6, mouse, iv, 1 mg/kg

human DLK, sequence (Q12852 whole entry): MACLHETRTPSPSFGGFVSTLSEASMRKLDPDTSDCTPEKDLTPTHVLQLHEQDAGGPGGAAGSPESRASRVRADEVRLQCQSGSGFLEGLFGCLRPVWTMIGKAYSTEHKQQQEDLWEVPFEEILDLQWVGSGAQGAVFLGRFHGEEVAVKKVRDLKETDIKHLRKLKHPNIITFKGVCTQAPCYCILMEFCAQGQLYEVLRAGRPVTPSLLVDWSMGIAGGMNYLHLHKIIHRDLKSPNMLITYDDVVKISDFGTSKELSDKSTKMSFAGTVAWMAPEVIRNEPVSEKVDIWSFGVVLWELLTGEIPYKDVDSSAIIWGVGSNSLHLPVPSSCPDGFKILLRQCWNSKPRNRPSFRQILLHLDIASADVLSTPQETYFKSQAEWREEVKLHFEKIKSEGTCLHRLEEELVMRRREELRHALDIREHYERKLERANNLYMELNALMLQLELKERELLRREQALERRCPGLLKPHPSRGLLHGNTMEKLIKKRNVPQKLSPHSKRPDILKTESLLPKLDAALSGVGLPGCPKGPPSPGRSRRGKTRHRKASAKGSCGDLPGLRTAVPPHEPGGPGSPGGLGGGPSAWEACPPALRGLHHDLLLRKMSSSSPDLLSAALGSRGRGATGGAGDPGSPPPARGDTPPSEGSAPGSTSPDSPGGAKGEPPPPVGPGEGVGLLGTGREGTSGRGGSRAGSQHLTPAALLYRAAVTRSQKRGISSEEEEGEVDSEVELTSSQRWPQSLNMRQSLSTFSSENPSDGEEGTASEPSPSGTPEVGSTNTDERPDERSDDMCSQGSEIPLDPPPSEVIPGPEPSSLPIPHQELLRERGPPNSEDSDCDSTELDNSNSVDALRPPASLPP

Row | Structure (SMILES) | Kd (human DLK; read-out: Kd) | half-life [1] | Kp [2, 9] | unbound brain-to-plasma ratio (Kp,uu) [2, 9] | clearance [2, 10] | half-life [2, 10] | Vd [2, 10] | AUC(0-t) ([2]; mouse, male C57BL/6 mice) | Cmax ([2]; mouse, male C57BL/6 mice) | bioavailability ([2]; mouse, male C57BL/6 mice) | half-life [3] | half-life [7] | other results
1 | CC(C)[C@H](O)c1nc(-c2cnc(N)c(OC(F)(F)F)c2)cn1C12CC(F)(C1)C2 (single isomer, unassigned) [Example 3b] | 0.24 nM |  |  |  |  |  |  |  |  |  |  |  | 
2 | CC(C)[C@H](O)c1nc(-c2cnc(N)c(C(F)(F)F)c2)cn1C12CC(F)(C1)C2 (single isomer, unassigned) [Example 4b] | 0.29 nM | 30 min | 1.72 | 1.06 | 24.5 mL/min/kg | 1.86 h | 3.3 L/kg | 8.67 µM·h | 5.42 µM | 49.2% | 71 min | 213 min | clearance in mice, comparison in words [2]: reduced clearance; half-life in mice, comparison in words [2]: longer half-life; microsomal stability, comparison in words [4]: improvements to microsomal stability; half-life [5]: 22 min; half-life [6]: 355 min
3 | CC(C)[C@@H](O)c1nc(-c2cnc(N)c(C(F)(F)F)c2)cn1C12CC(N3CCC(F)(F)CC3)(C1)C2 (single isomer, unassigned) [Example 7a] | 0.21 nM | 566 min |  |  |  |  |  |  |  |  |  | 70 min | 
4 | CC(C)[C@@H](O)c1nc(-c2cnc(N)c(OC(F)(F)F)c2)cn1C12CC(N3CCC(F)(F)CC3)(C1)C2 (single isomer, unassigned) [Example 8a] | 0.5 nM | 201 min | 0.82 | 0.38 | 7 mL/min/kg | 6.7 h | 3.8 L/kg | 41.4 µM·h | 3.54 µM | 106% | 322 min | 297 min | 
5 | Nc1ncc(-c2cn(C34CC(N5CCC(F)(F)CC5)(C3)C4)c([C@@H](O)C(F)(F)F)n2)cc1C(F)(F)F (single isomer, unassigned) [Example 10a] | 0.62 nM |  |  |  |  |  |  |  |  |  |  |  | 
6 | Nc1ncc(-c2cn(C34CC(C3)C4)c([C@@H](O)C(F)(F)F)n2)cc1OC(F)(F)F [Compound 13, (R)-1-(4-(6-amino-5-(trifluoromethoxy)-pyridin-3-yl)-1-(bicyclo[1.1.1]pentan-1-yl)-1H-imidazol-2-yl)-2,2,2-trifluoroethan-1-ol, reference compound] |  | 77 min | 2.97 | 1.54 | 14.1 mL/min/kg | 3.53 h | 4.6 L/kg | 14.4 µM·h | 1.95 µM | 51% | 221 min | 121 min | Kd (human DLK; [11]): 1.6 nM; half-life [5]: 56 min; clearance ([8]; IV dose 1 mg/kg): 12.1 mL/min/kg; half-life ([8]; IV dose 1 mg/kg): 9.94 h; Vd ([8]; IV dose 1 mg/kg, read-out: Vss): 7.9 L/kg; AUC(0-t) ([8]; oral dose 3 mg/kg): 7.59 µM·h; Cmax ([8]; oral dose 3 mg/kg): 0.909 µM; bioavailability ([8]; oral dose 3 mg/kg): 86.3%; half-life [6]: 109 min
7 | CC(C)C(O)c1nc(-c2cnc(N)c(C(F)(F)F)c2)cn1C12CC(C1)C2 (stereo not shown) [Compound 14, 1-(4-(6-amino-5-(trifluoromethyl)pyridin-3-yl)-1-(bicyclo[1.1.1]pentan-1-yl)-1H-imidazol-2-yl)-2-methylpropan-1-ol, reference compound] |  | 27 min |  |  |  |  |  |  |  |  |  | 41 min | Kd (human DLK; [11]): 0.3 nM
8 | CC(C)[C@H](O)c1nc(-c2cnc(N)c(C(F)(F)F)c2)cn1C12CC(C1)C2 [Compound 14b, (S)-1-(4-(6-amino-5-(trifluoromethyl)pyridin-3-yl)-1-(bicyclo[1.1.1]pentan-1-yl)-1H-imidazol-2-yl)-2-methylpropan-1-ol, reference compound] |  | 23 min |  |  | 76.7 mL/min/kg | 0.7 h | 3.72 L/kg | 3.62 µM·h | 3.38 µM | 61.2% | 16 min | 26 min | Kd (human DLK; [11]): 0.12 nM; half-life [5]: 7 min; half-life [6]: 154 min
9 | CC(C)[C@H](O)c1nc(-c2cnc(N)c(OC(F)(F)F)c2)cn1C12CC(N3CCOCC3)(C1)C2 [Compound 15, (S)-1-(4-(6-amino-5-(trifluoromethoxy)pyridin-3-yl)-1-(3-morpholinobicyclo[1.1.1]pentan-1-yl)-1H-imidazol-2-yl)-2-methylpropan-1-ol, reference compound] |  | 3000 min | 0.24 | 0.16 |  |  |  |  |  |  | 1840 min | 80 min | clearance [2, 12]: 12 mL/min/kg; half-life [2, 12]: 5.4 h; Vd [2, 12]: 4.1 L/kg; brain penetration, in words ([2]; mouse): reduced brain penetration; clearance in mice, comparison in words [2]: reduced clearances; half-life in mice, comparison in words [2]: longer half-lives; microsomal stability, comparison in words [4]: improved microsomal stability
10 | Nc1ncc(-c2cn(C34CC(N5CCOCC5)(C3)C4)c([C@@H](O)C(F)(F)F)n2)cc1OC(F)(F)F [Compound 16, (R)-1-(4-(6-amino-5-(trifluoromethoxy)pyridin-3-yl)-1-(3-morpholinobicyclo[1.1.1]pentan-1-yl)-1H-imidazol-2-yl)-2,2,2-trifluoroethan-1-ol, reference compound] |  | 1500 min | 0.21 | 0.16 | 4.4 mL/min/kg | 5.2 h | 1.8 L/kg | 70.3 µM·h | 11.9 µM | 92.1% | 1040 min | 260 min | brain penetration, in words ([2]; mouse): reduced brain penetration; clearance in mice, comparison in words [2]: reduced clearances; half-life in mice, comparison in words [2]: longer half-lives; Kd (human DLK; [11]): 0.36 nM; microsomal stability, comparison in words [4]: improved microsomal stability
11 | Nc1ncc(-c2cn(C34CC(F)(C3)C4)c([C@H](O)C(F)(F)F)n2)cc1OC(F)(F)F [Example 1b, (S)-1-(4-(6-amino-5-(trifluoromethoxy)pyridin-3-yl)-1-(3-fluorobicyclo[1.1.1]pentan-1-yl)-1H-imidazol-2-yl)-2,2,2-trifluoroethanol] |  |  |  |  |  |  |  |  |  |  |  |  | Kd (human DLK): 120 nM
12 | Nc1ncc(-c2cn(C34CC(F)(C3)C4)c([C@@H](O)C(F)(F)F)n2)cc1C(F)(F)F [Example 2a, (R)-1-(4-(6-amino-5-(trifluoromethyl)pyridin-3-yl)-1-(3-fluorobicyclo[1.1.1]pentan-1-yl)-1H-imidazol-2-yl)-2,2,2-trifluoroethanol] | 4.4 nM |  |  |  |  |  |  |  |  |  |  |  | 
13 | Nc1ncc(-c2cn(C34CC(F)(C3)C4)c(C(O)C3CC3)n2)cc1OC(F)(F)F (stereo not shown) [Example 5, (4-(6-amino-5-(trifluoromethoxy)pyridin-3-yl)-1-(3-fluorobicyclo[1.1.1]pentan-1-yl)-1H-imidazol-2-yl)(cyclopropyl)methanol] | 5.2 nM |  |  |  |  |  |  |  |  |  |  |  | 
14 | Nc1ncc(-c2cn(C34CC(F)(C3)C4)c(C(O)C3CC3)n2)cc1C(F)(F)F (stereo not shown) [Example 6, (4-(6-amino-5-(trifluoromethyl)pyridin-3-yl)-1-(3-fluorobicyclo[1.1.1]pentan-1-yl)-1H-imidazol-2-yl)(cyclopropyl)methanol] | 7.7 nM |  |  |  |  |  |  |  |  |  |  |  | 
15 | Nc1ncc(-c2cn(C34CC(N5CCC(F)(F)CC5)(C3)C4)c(C(O)C3CC3)n2)cc1OC(F)(F)F (stereo not shown) [Example 11, (4-(6-amino-5-(trifluoromethoxy)pyridin-3-yl)-1-(3-(4,4-difluoropiperidin-1-yl)bicyclo[1.1.1]pentan-1-yl)-1H-imidazol-2-yl)(cyclopropyl)methanol] | 3.1 nM |  |  |  |  |  |  |  |  |  |  |  | 
16 | Nc1ncc(-c2cn(C34CC(N5CCC(F)(F)CC5)(C3)C4)c(C(O)C3CC3)n2)cc1C(F)(F)F (stereo not shown) [Example 12, (4-(6-amino-5-(trifluoromethyl)pyridin-3-yl)-1-(3-(4,4-difluoropiperidin-1-yl)bicyclo[1.1.1]pentan-1-yl)-1H-imidazol-2-yl)(cyclopropyl)methanol] | 2.9 nM |  |  |  |  |  |  |  |  |  |  |  | 
